Calls of active or inactive are those of the source. The rule behind the calls is not given here.
biological target: T1, Nuclear factor erythroid 2-related factor 2 (Rattus norvegicus) (UniProt O54968); test: Activation of Nrf2 in rat PC12 cells assessed as increase of HO-1 mRNA level at 1 to 4 uM by qRT-PCR analysis; format: cell-based; conditions: PC-12, TDE = time-dependent effect
T1 sequence (whole entry): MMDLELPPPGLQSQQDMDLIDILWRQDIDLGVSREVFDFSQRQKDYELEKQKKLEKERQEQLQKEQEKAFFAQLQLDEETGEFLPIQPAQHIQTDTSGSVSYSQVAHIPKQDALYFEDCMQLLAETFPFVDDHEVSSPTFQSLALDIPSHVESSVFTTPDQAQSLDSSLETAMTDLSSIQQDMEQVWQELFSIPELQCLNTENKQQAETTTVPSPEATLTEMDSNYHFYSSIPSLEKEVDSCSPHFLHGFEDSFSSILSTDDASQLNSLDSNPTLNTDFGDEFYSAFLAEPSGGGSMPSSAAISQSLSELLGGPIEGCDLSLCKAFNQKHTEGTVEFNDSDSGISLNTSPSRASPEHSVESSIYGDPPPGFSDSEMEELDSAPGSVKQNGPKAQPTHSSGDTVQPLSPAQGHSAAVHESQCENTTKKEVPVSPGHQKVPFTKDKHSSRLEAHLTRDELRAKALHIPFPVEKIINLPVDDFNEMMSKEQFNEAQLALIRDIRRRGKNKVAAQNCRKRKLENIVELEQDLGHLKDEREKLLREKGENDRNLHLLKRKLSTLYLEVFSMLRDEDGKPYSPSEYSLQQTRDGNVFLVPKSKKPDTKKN

With `CC(C)c1ccc(S(=O)(=O)Nc2cc(Sc3nc[nH]n3)c(O)c3ccccc23)cc1` the Activity was “tde”.

biological target: Kelch-like ECH-associated protein 1 (Homo sapiens) (UniProt Q14145); conditions: not given
Sequence (Q14145 whole entry): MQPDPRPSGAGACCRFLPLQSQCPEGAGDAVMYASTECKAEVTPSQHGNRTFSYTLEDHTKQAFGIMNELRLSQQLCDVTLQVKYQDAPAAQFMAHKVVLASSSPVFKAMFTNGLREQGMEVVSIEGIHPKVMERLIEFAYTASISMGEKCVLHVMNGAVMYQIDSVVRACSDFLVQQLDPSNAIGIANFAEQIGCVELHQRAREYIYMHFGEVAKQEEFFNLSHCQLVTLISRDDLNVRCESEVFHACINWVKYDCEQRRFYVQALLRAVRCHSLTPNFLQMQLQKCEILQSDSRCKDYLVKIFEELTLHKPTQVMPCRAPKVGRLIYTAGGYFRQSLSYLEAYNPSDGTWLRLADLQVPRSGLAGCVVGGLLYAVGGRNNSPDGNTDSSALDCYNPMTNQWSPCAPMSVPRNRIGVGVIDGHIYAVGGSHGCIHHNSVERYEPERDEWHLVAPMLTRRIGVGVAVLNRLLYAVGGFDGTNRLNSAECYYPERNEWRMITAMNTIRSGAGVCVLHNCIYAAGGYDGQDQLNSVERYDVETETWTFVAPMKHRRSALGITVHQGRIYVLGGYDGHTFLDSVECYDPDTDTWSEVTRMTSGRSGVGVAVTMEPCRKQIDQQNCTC

Going from `Cc1ccc(S(=O)(=O)Nc2cc(Sc3nc4ccccc4s3)c(O)c3ccccc23)cc1` to `CCOc1ccc(S(=O)(=O)Nc2cc(Sc3nc[nH]n3)c(O)c3ccccc23)cc1`, the ΔTm rises from 1 °C to 4 °C.

Going from `Cc1ccccc1NC(=O)CN1C(=O)S/C(=C\c2cccn2-c2cccc(C(=O)O)c2)C1=O` to `O=C1NN(c2cccc(Cl)c2)C(=O)/C1=C\c1ccc(-c2ccc(C(=O)O)c(Cl)c2)o1`, the ΔTm rises from 1 °C to 2 °C.

`COc1ccc(S(=O)(=O)Nc2ccc(NS(=O)(=O)c3ccc(OC)cc3)c3ccccc23)cc1` and `Cc1cc(C)c(S(=O)(=O)Nc2cc3sc(=O)oc3c3ccccc23)cc1C` are the same in ΔTm: 1 °C for the first, 1 °C for the second.

biological target: T1, Nuclear factor erythroid 2-related factor 2 (Rattus norvegicus); test: Activation of Nrf2 in rat PC12 cells assessed as increase of NQO-1 mRNA level at 1 to 4 uM after 4.5 to 9 hrs by qRT-PCR analysis; format: cell-based; conditions: PC-12

For `COc1ccc(S(=O)(=O)Nc2ccc(NS(=O)(=O)c3ccc(OC)cc3)c3ccccc23)cc1`, the Activity was “inactive”.

biological target: T1, Nuclear factor erythroid 2-related factor 2 (Rattus norvegicus); test: Induction of nuclear translocation of Nrf2 in rat PC12 cells at 4 uM after 1.5 hrs by Western blot analysis; format: cell-based; conditions: PC-12

With `CC(C)c1ccc(S(=O)(=O)Nc2cc(Sc3nc[nH]n3)c(O)c3ccccc23)cc1` the Activity was “Active”.

biological target: T1, Nuclear factor erythroid 2-related factor 2 (Rattus norvegicus); test: Induction of nuclear translocation of Nrf2 in rat PC12 cells at 4 uM after 4.5 hrs by Western blot analysis; format: cell-based; conditions: PC-12

`CC(C)c1ccc(S(=O)(=O)Nc2cc(Sc3nc[nH]n3)c(O)c3ccccc23)cc1` was tested, and the Activity was “inactive”.

biological target: T1, Nuclear factor erythroid 2-related factor 2 (Rattus norvegicus); test: Activation of Nrf2 in rat PC12 cells assessed as increase of HO-1 mRNA level at 1 to 4 uM after 4.5 to 9 hrs by qRT-PCR analysis; format: cell-based; conditions: PC-12

With `COc1ccc(S(=O)(=O)Nc2ccc(NS(=O)(=O)c3ccc(OC)cc3)c3ccccc23)cc1` the Activity was “inactive”.

biological target: Keap1/Nrf2 (Homo sapiens, UniProt Q14145); test: Inhibition of Keap1-Nrf2 (unknown origin) interaction assessed as compound's equilibrium dissociation constant after 60 mins by fluorescence anisotropy assay; format: protein assay; conditions: not given
Sequence (Q16236 whole entry): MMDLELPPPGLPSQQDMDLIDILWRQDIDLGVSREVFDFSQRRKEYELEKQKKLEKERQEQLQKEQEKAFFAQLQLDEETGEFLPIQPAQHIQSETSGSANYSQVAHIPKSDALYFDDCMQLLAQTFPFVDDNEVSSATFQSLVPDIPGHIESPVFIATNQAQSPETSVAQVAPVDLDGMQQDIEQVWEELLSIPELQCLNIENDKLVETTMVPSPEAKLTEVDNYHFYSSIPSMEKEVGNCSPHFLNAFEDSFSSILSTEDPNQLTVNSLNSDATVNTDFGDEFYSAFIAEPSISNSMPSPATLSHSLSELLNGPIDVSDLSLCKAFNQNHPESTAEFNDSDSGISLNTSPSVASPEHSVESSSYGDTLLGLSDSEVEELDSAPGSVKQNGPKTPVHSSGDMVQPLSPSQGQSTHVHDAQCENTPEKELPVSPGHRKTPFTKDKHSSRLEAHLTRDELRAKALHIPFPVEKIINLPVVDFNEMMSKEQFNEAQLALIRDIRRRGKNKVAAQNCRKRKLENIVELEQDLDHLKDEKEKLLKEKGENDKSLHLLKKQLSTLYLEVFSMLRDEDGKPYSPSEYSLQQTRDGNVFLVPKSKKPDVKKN
Sequence (Q14145 whole entry): as the sequence (Q14145 whole entry) above

Going from `Cc1cc(C)c(S(=O)(=O)Nc2cc(Sc3nc[nH]n3)c(O)c3ccccc23)cc1C` to `Cc1cc(C)c(S(=O)(=O)Nc2cc(Cl)c(O)c(Sc3nc[nH]n3)c2)cc1C`, the Kd rises from 3.6 µM to 20.9 µM (5.8-fold).

Going from `NC(=O)c1ccc(-c2ccc(/C=C3/C(=O)NN(c4ccc(F)cc4)C3=O)o2)cc1` to `O=C1NN(c2cccc(F)c2)C(=O)/C1=C\c1ccc(-c2ccc(C(=O)O)cc2)o1`, the Kd falls from greater than 100 µM to 77.8 µM. The second binds more tightly here.

Going from `O=S(=O)(Nc1cc(Sc2nc[nH]n2)c(O)c2ccccc12)c1ccc2ccccc2c1` to `O=S(=O)(Nc1cc(Sc2nc[nH]n2)c(O)c2ccccc12)c1ccccc1`, the Kd rises from 3.6 µM to 61.2 µM (17-fold). The first binds more tightly here.

First: O=C1NN(c2ccccc2)C(=O)/C1=C\c1ccc(-c2ccc(C(=O)O)c(Cl)c2)o1
Second: O=C1NN(c2cccc(Cl)c2)C(=O)/C1=C\c1ccc(-c2ccc(C(=O)O)c(Cl)c2)o1
The Kd of the first is 2.8-fold higher: 42.9 µM for the first, 15.2 µM for the second.

`O=C(O)CSc1cc(NS(=O)(=O)c2ccc(Br)cc2)c2ccccc2c1O` and `Cc1ccc(S(=O)(=O)Nc2cc(SCC(=O)O)c(O)c3ccccc23)cc1` are within 1.5-fold of each other in Kd: 14.7 µM for the first, 15.4 µM for the second.

Going from `O=C(CN1C(=O)S/C(=C\c2cccn2-c2ccc(O)cc2)C1=O)Nc1ccccc1F` to `Cc1ccccc1NC(=O)CN1C(=O)S/C(=C\c2cccn2-c2cccc(C(=O)O)c2)C1=O`, the Kd falls from greater than 100 µM to 10.4 µM.

`COc1ccc(-n2cccc2/C=C2\SC(=O)N(CC(=O)Nc3cccc(C)c3)C2=O)cc1` and `COc1ccc(-n2cccc2/C=C2\SC(=O)N(CC(=O)Nc3ccc(C)cc3)C2=O)cc1` cannot be ordered by Kd: greater than 100 µM for the first, greater than 100 µM for the second.

`Cc1ccc(S(=O)(=O)Nc2cc(Sc3nc4ccccc4s3)c(O)c3ccccc23)cc1` and `Cc1ccc(S(=O)(=O)Nc2cc(Sc3cccc4cccnc34)c(O)c3ccccc23)cc1` cannot be ordered by Kd: greater than 100 µM for the first, greater than 100 µM for the second.

`O=C(CN1C(=O)S/C(=C\c2cccn2-c2cccc(C(=O)O)c2)C1=O)Nc1ccc(Cl)cc1` and `O=C(CN1C(=O)S/C(=C\c2cccn2-c2cccc(C(=O)O)c2)C1=O)Nc1ccc(F)cc1` cannot be ordered by Kd: greater than 100 µM for the first, greater than 100 µM for the second.

First: Cc1ccc(NC(=O)CN2C(=O)S/C(=C\c3cccn3-c3cccc(C(=O)O)c3)C2=O)cc1C
Second: Cc1ccc(NC(=O)CN2C(=O)S/C(=C\c3cccn3-c3cccc(C(=O)O)c3)C2=O)c(C)c1
The Kd of the first is 1.6-fold lower: 28.9 µM for the first, 47.6 µM for the second.

Going from `COc1ccc(S(=O)(=O)Nc2cc(Sc3nc[nH]n3)c(O)c3ccccc23)cc1` to `CCOc1ccc(S(=O)(=O)Nc2cc(Sc3nc[nH]n3)c(O)c3ccccc23)cc1`, the Kd falls from 6.8 µM to 3.1 µM (2.2-fold). The second binds more tightly here.

First: CC(=O)Oc1c(SCC(=O)O)cc(NS(=O)(=O)c2ccc(F)cc2)c2ccccc12
Second: O=C(O)CSc1cc(NS(=O)(=O)c2ccc(F)cc2)c2ccccc2c1O
The Kd of the first is higher: greater than 100 µM for the first, 30.2 µM for the second.

`COC(=O)c1ccc(N2NC(=O)/C(=C/c3ccc(-c4ccc(S(N)(=O)=O)cc4)o3)C2=O)cc1` and `Cc1cccc(N2NC(=O)/C(=C/c3ccc(-c4ccc(S(N)(=O)=O)cc4)o3)C2=O)c1` cannot be ordered by Kd: greater than 100 µM for the first, greater than 100 µM for the second.

Going from `COc1ccc(NC(=O)CN2C(=O)S/C(=C\c3cccn3-c3ccc(C(=O)O)cc3)C2=O)cc1` to `Cc1cccc(NC(=O)CN2C(=O)S/C(=C\c3cccn3-c3cccc(C(=O)O)c3)C2=O)c1`, the Kd rises from 23.8 µM to 68.2 µM (2.9-fold). The first binds more tightly here.

First: Cc1cc(F)ccc1S(=O)(=O)Nc1cc(SCC(=O)O)c(O)c2ccccc12
Second: Cc1cc(C)c(S(=O)(=O)Nc2cc(SCC(=O)O)c(O)c3ccccc23)c(C)c1
The Kd of the first is 2.9-fold higher: 12.2 µM for the first, 4.2 µM for the second.

Going from `O=C(O)CSc1cc(NS(=O)(=O)c2ccc(Cl)cc2)c2ccccc2c1O` to `CC(C)c1ccc(S(=O)(=O)Nc2cc(SCC(=O)O)c(O)c3ccccc23)cc1`, the Kd falls from 15.3 µM to 6.4 µM (2.4-fold).

Going from `Cc1ccc(/N=C2/S/C(=C\c3c(C)n(CC(=O)O)c4ccccc34)C(=O)N2C)cc1` to `Cc1ccc(NC(=O)CN2C(=O)S/C(=C\c3cccn3C)C2=O)c(C)c1`, the Kd rises from 35.4 µM to greater than 100 µM. The first binds more tightly here.

`COc1ccc(S(=O)(=O)Nc2cc(Sc3ccccc3)c(O)c3ccccc23)cc1` and `Cc1ccc(S(=O)(=O)Nc2cc(SCc3ccccc3)c(O)c3ccccc23)cc1` cannot be ordered by Kd: greater than 100 µM for the first, greater than 100 µM for the second.

Compared with `O=C(O)CSc1cc(NS(=O)(=O)c2cccc3cccnc23)c2ccccc2c1O`, `O=C(O)CSc1cc(NS(=O)(=O)c2ccc3ccccc3c2)c2ccccc2c1O` is 2.4-fold lower in Kd: 18.9 µM for the first, 7.8 µM for the second. The second binds more tightly here.

First: CC(C)(C)c1ccc(S(=O)(=O)Nc2cc(SCc3ccco3)c(O)c3ccccc23)cc1
Second: O=S(=O)(Nc1cc(Sc2nc[nH]n2)c(O)c2ccccc12)c1ccc(Br)cc1
The Kd of the first is higher: greater than 100 µM for the first, 13.1 µM for the second.

`CN1C(=O)S/C(=C\c2cccn2-c2cccc(C(=O)O)c2)C1=O` and `Cc1cccc(C)c1NC(=O)CN1C(=O)S/C(=C\c2cccn2-c2cccc(C(=O)O)c2)C1=O` cannot be ordered by Kd: greater than 100 µM for the first, greater than 100 µM for the second.

Compared with `Cc1cc(C)c(S(=O)(=O)Nc2cc3sc(=O)oc3c3ccccc23)cc1C`, `Cc1oc2c(cc(NS(=O)(=O)c3ccc(Cl)cc3)c3ccccc32)c1C(=O)O` is lower in Kd: greater than 100 µM for the first, 75.2 µM for the second. The second binds more tightly here.

Compared with `O=C(O)CSc1cc(NS(=O)(=O)c2cccs2)c2ccccc2c1O`, `Cc1ccc(S(=O)(=O)Nc2cc(Sc3nc(C)cc(C)n3)c(O)c3ccccc23)cc1` is higher in Kd: 36.6 µM for the first, greater than 100 µM for the second. The first binds more tightly here.

`Cc1ccc(N2NC(=O)/C(=C/c3ccc(-c4ccc(S(=O)(=O)Nc5nccs5)cc4)o3)C2=O)cc1` and `O=C1NN(c2ccc(Br)cc2)C(=O)/C1=C\c1ccc(-c2ccccc2)o1` cannot be ordered by Kd: greater than 100 µM for the first, greater than 100 µM for the second.

Going from `CCOc1cc(/C=C2\N=C(c3ccccc3)OC2=O)cc(Br)c1OCC(=O)O` to `O=C1NN(c2cccc(Cl)c2)C(=O)/C1=C\c1ccc(-c2cccc(C(=O)O)c2)o1`, the Kd rises from 29.5 µM to 49.2 µM (1.7-fold). The first binds more tightly here.

First: O=C1NN(c2cccc(Cl)c2)C(=O)/C1=C\c1ccc(-c2ccc(Br)cc2C(=O)O)o1
Second: Cc1ccc(S(=O)(=O)Nc2ccc(O)c(Sc3nc[nH]n3)c2)cc1
The Kd of the first is lower: 39.5 µM for the first, greater than 100 µM for the second. The first binds more tightly here.

`O=S(=O)(Nc1cc(Sc2nnnn2-c2ccccc2)c(O)c2ccccc12)c1ccccc1` gave a Kd of 55.5 µM.

biological target: T1, Nuclear factor erythroid 2-related factor 2 (Rattus norvegicus); test: Activation of Nrf2 in rat PC12 cells assessed as increase of HO-1 mRNA level after 4.5 to 9 hrs by qRT-PCR analysis; format: cell-based; conditions: PC-12

`CC(C)c1ccc(S(=O)(=O)Nc2cc(Sc3nc[nH]n3)c(O)c3ccccc23)cc1` was tested, and the Activity was “Dose-dependent effect”.
